Our source for the DC50 and Emax values is US20260014147A1, “STAT6 DEGRADERS” (Gilead Sciences, Inc., priority 2024, published 2026).

Structures are written as SMILES.

The first assay addresses T1, STAT6 (endogenous, HiBiT-tagged) in HeLa LgBiT clone 4.14 cells (Homo sapiens, UniProt P42226).
T1 construct: These cells express endogenous STAT6; host or cells: HeLa LgBiT clone 4.14
T1 sequence (P42226 1-847): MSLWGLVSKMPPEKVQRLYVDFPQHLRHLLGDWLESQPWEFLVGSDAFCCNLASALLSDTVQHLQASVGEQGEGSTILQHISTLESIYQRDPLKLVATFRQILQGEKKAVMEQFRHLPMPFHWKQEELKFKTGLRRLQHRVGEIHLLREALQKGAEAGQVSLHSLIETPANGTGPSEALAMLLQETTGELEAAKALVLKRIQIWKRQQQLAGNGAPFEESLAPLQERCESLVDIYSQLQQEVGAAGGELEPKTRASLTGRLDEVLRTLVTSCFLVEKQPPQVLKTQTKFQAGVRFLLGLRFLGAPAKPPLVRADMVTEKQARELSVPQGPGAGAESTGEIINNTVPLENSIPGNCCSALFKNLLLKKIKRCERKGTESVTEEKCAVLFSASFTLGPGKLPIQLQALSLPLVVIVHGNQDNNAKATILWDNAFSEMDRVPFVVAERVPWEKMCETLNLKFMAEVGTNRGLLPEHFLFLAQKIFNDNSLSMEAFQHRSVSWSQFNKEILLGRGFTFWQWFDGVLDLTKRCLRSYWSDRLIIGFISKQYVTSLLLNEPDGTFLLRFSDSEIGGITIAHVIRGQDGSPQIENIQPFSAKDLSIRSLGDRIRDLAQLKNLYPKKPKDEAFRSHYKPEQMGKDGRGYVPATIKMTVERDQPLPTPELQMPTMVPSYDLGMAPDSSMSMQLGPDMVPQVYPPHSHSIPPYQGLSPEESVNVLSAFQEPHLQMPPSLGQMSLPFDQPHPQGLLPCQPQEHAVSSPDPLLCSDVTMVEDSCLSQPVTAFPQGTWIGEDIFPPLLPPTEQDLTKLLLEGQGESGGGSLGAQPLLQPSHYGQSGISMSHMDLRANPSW
Description: STAT6 Degrader Assay (HiBiT based, HeLa LgBiT clone 4.14 cells, luminescence, DC50). Type of assay: cell-based. The conditions noted are these: DC50 provided for test compounds with >80% Emax, geometric mean, read-out: STAT6 degradation DC50. The procedure: This was a HiBit based assay. A HeLa cell line stably transfected with a small protein, LgBit (Large Bit) was obtained from Promega. These cells express endogenous STAT6. A small 11 amino acid gene sequence (HiBiT) was inserted in the STAT6 gene using CRISPR technology. Once STAT6 protein is expressed in the cells, the HiBiT sequence will bind the LgBit in the cells resulting in a functional NanoBiT protein, giving a luminescent tag to STAT6. Single cell clones were prepared and the clone 4.14 was selected for the assay based on that clone showing high luminescence, high STAT6 phosphorylation upon stimulation with IL-4, and inhibition of luminescence when cells were treated with STAT6 siRNA. HeLa LgBiT clone 4.14 cells were suspended in DMEM with 10% FCS, 1% Pen/Strep, Na-pyrovate and Hygromycin B, at a concentration of […]. 5000 cells were added pr well of a 384 well plate and 20 nL of compound was added by Echo® liquid handler. NN6394A (terfenadine, a toxic compound) was added to control wells at 50 µM concentration to establish the assay window. In these wells the cells are dead which equals 100% degradation of STAT6. After 4-24 h of incubation at 37° C. under 5% CO2/95% air, […] substrate (Nano-GLO®) was added to the wells and the plates were centrifuged and incubated for 0.5 h. The luminescence in the wells as a measure of non-degraded STAT6 was measured in a plate reader (BMG Pherastar FSX). The dose-response curves for Examples 2a2, 2t1, 2 h3, and 2r1 are shown below (where percent degradation is plotted vs. test compound concentration in M on a log-scale).
Regarding `C[C@@H]1CN(c2ccc(NC3CCC(=O)NC3=O)cc2F)CCN1CC1CCN(C(=O)c2ccc(C3CCN(Cc4cc5c(-c6ccc(N)nc6)ccnc5n4C)CC3)cc2)CC1` (stereo partly drawn) [Example 2f6, 3-((4-((R)-4-((1-(4-(1-((4-(6-aminopyridin-3-yl)-1-methyl-1H-pyrrolo[2,3-b]pyridin-2-yl)-methyl)-piperidin-4-yl)benzoyl)piperidin-4-yl)methyl)-3-methylpiperazin-1-yl)-3-fluorophenyl)amino)-piperidine-2,6-dione], the DC50 – broadly, the midpoint of the concentration-degradation curve – was 38.8 nM.
On to `COCc1nc2cc(-c3ccnc4c3cc(CN3CCC(c5ccc(C(=O)N6CCC(CN7CCN(c8ccc(NC9CCC(=O)NC9=O)cc8F)C[C@H]7C)CC6)cc5)CC3)n4C)ccc2[nH]1` (stereo partly drawn) [Example 2f7, 3-((3-fluoro-4-((R)-4-((1-(4-(1-((4-(2-(methoxymethyl)-1H-benzo[d]imidazol-5-yl)-1-methyl-1H-pyrrolo[2,3-b]pyridin-2-yl)methyl)piperidin-4-yl)benzoyl)piperidin-4-yl)methyl)-3-methylpiperazin-1-yl)phenyl)-amino)piperidine-2,6-dione], for which the 50% degradation concentration (DC50) was 6.6 nM.
Still for that read-out and setting: in the case of `C[C@@H]1CN(c2ccc(NC3CCC(=O)NC3=O)cc2F)CCN1CC1CCN(C(=O)c2ccc(C3CCN(Cc4cc5c(-c6ccc7[nH]ncc7c6)ccnc5n4C)CC3)cc2)CC1` (stereo partly drawn) [Example 2f8, 3-((4-((R)-4-((1-(4-(1-((4-(1H-indazol-5-yl)-1-methyl-1H-pyrrolo[2,3-b]pyridin-2-yl)methyl)-piperidin-4-yl)benzoyl)piperidin-4-yl)methyl)-3-methylpiperazin-1-yl)-3-fluorophenyl)amino)piperidine-2,6-dione] it was 19.1 nM; in that of `C[C@@H](c1cc2c(-c3ccc(N)nc3)ccnc2n1C)N1CCC(c2ccc(C(=O)N3CCN(CC4CCN(c5ccc(NC6CCC(=O)NC6=O)cc5F)CC4)CC3)cc2)CC1` (stereo partly drawn) [Example 2g63, 3-((4-(4-((4-(4-(1-((S)-1-(4-(6-aminopyridin-3-yl)-1-methyl-1H-pyrrolo[2,3-b]pyridin-2-yl)ethyl)piperidin-4-yl)benzoyl)piperazin-1-yl)methyl)piperidin-1-yl)-3-fluorophenyl)amino)piperidine-2,6-dione], 48.3 nM; in that of `Cn1c(CN2CCC(c3ccc(C(=O)N4CCC(CN5CCC(N6CCC(c7ccc(NC8CCC(=O)NC8=O)cc7F)CC6)C(F)(F)C5)CC4)cc3)CC2)cc2c(-c3ccc4[nH]ncc4c3)ccnc21` (stereo not shown) [Example 2h1, 3-((4-(1′-((1-(4-(1-((4-(1H-indazol-5-yl)-1-methyl-1H-pyrrolo[2,3-b]pyridin-2-yl)methyl)-piperidin-4-yl)benzoyl)piperidin-4-yl)methyl)-3′, 3′-difluoro-[1,4′-bipiperidin]-4-yl)-3-fluorophenyl)-amino)piperidine-2,6-dione], 66.3 nM.
On to `Cn1c(CN2CCC(c3ccc(C(=O)N4CCC(CN5CCC(N6CCC(c7ccc(NC8CCC(=O)NC8=O)cc7F)CC6)C(F)(F)C5)CC4)cc3)CC2)cc2c(-c3ccc(N)nc3)ccnc21` (stereo not shown) [Example 2h2, 3-((4-(1′-((1-(4-(1-((4-(6-aminopyridin-3-yl)-1-methyl-1H-pyrrolo[2,3-b]pyridin-2-yl)-methyl)piperidin-4-yl)benzoyl)piperidin-4-yl)methyl)-3′, 3′-difluoro-[1,4′-bipiperidin]-4-yl)-3-fluoro-phenyl)amino)piperidine-2,6-dione], for which the 50% degradation concentration (DC50) was 133 nM.
The same measure, in the same setting: the value for `COCc1nc2cc(-c3ccnc4c3cc(CN3CCC(c5ccc(C(=O)N6CCC(CN7CCC(N8CCC(c9ccc(NC%10CCC(=O)NC%10=O)cc9F)CC8)C(F)(F)C7)CC6)cc5)CC3)n4C)ccc2[nH]1` (stereo not shown) [Example 2h3, 3-((4-(3′, 3′-difluoro-1′-((1-(4-(1-((4-(2-(methoxymethyl)-1H-benzo[d]imidazol-5-yl)-1-methyl-1H-pyrrolo[2,3-b]pyridin-2-yl)methyl)piperidin-4-yl)benzoyl)piperidin-4-yl)methyl)-[1,4′-bipiperidin]-4-yl)-3-fluorophenyl)amino)piperidine-2,6-dione] was 54.8 nM.

Staying with this assay, now noted: Emax provided for test compounds with <80% Emax (and 2c15), geometric mean, read-out: STAT6 degradation Emax.
For `C[C@H]1CN(c2ccc(NC3CCC(=O)NC3=O)cc2F)CCN1CC1CCN(C(=O)c2ccc(C3CCN(Cc4cc5c(-c6ccc(N)nc6)ccnc5n4C)CC3)cc2)CC1` (stereo partly drawn) [Example 2f3, 3-((4-((S)-4-((1-(4-(1-((4-(6-aminopyridin-3-yl)-1-methyl-1H-pyrrolo[2,3-b]pyridin-2-yl)methyl)piperidin-4-yl)benzoyl)piperidin-4-yl)methyl)-3-methylpiperazin-1-yl)-3-fluorophenyl)amino)-piperidine-2,6-dione], the maximal response (Emax) – broadly, the greatest response seen or fitted, relative to the assay's reference – was in the range of 20 to 30%.
As for `COCc1nc2cc(-c3ccnc4c3cc(CN3CCC(c5ccc(C(=O)N6CCC(CN7CCN(c8ccc(NC9CCC(=O)NC9=O)cc8F)C[C@@H]7C)CC6)cc5)CC3)n4C)ccc2[nH]1` (stereo partly drawn) [Example 2f4, 3-((3-fluoro-4-((S)-4-((1-(4-(1-((4-(2-(methoxymethyl)-1H-benzo[d]imidazol-5-yl)-1-methyl-1H-pyrrolo[2,3-b]pyridin-2-yl)methyl)piperidin-4-yl)benzoyl)piperidin-4-yl)methyl)-3-methylpiperazin-1-yl)phenyl)-amino)piperidine-2,6-dione], the Emax lay within 50 to 60%.
On to `C[C@H]1CN(c2ccc(NC3CCC(=O)NC3=O)cc2F)CCN1CC1CCN(C(=O)c2ccc(C3CCN(Cc4cc5c(-c6ccc7[nH]ncc7c6)ccnc5n4C)CC3)cc2)CC1` (stereo partly drawn) [Example 2f5, 3-((4-((S)-4-((1-(4-(1-((4-(1H-indazol-5-yl)-1-methyl-1H-pyrrolo[2,3-b]pyridin-2-yl)methyl)piperidin-4-yl)benzoyl)piperidin-4-yl)methyl)-3-methylpiperazin-1-yl)-3-fluorophenyl)amino)piperidine-2,6-dione], for which the maximum response (Emax) was 50 to 60%.
The same measure, in the same setting: in the case of `Cn1c(CN2CCC(c3ccc(C(=O)N4CCC(CN5CCC(n6ncc7c(NC8CCC(=O)NC8=O)cccc76)CC5)CC4)cc3)CC2)cc2c(-c3ccc4[nH]ncc4c3)ccnc21` (stereo not shown) [Example 2g1, 3-((1-(1-((1-(4-(1-((4-(1H-indazol-5-yl)-1-methyl-1H-pyrrolo[2,3-b]pyridin-2-yl)methyl)-piperidin-4-yl)benzoyl)piperidin-4-yl)methyl)piperidin-4-yl)-1H-indazol-4-yl)amino)piperidine-2,6-dione] it was less than 20%; in that of `COc1cc(N2CCN(CC3CCN(C(=O)c4ccc(C5CCN(Cc6cc7c(-c8ccc9[nH]ncc9c8)ccnc7n6C)CC5)cc4)CC3)CC2)c(F)cc1NC1CCC(=O)NC1=O` (stereo not shown) [Example 2i1, 3-((4-(4-((1-(4-(1-((4-(1H-indazol-5-yl)-1-methyl-1H-pyrrolo[2,3-b]pyridin-2-yl)methyl)-piperidin-4-yl)benzoyl)piperidin-4-yl)methyl)piperazin-1-yl)-5-fluoro-2-methoxyphenyl)amino)-piperidine-2,6-dione], 40 to 50%.
For the compound `COCc1nc2cc(-c3ccnc4c3cc([C@H](C)N3CCC(c5ccc(C(=O)N6CCC(CN7CCN(c8ccc(NC9CCC(=O)NC9=O)cc8C#N)CC7)CC6)cc5)CC3)n4C)ccc2[nH]1` (stereo partly drawn) [Example 2i2, 5-((2,6-dioxopiperidin-3-yl)amino)-2-(4-((1-(4-(1-((S)-1-(4-(2-(methoxymethyl)-1H-benzo[d]-imidazol-5-yl)-1-methyl-1H-pyrrolo[2,3-b]pyridin-2-yl)ethyl)piperidin-4-yl)benzoyl)piperidin-4-yl)methyl)-piperazin-1-yl)benzonitrile], the Emax fell in the range of 30 to 40%.
